Test results from ChEMBL document CHEMBL2021784, “Geopyxins A-E, ent-kaurane diterpenoids from endolichenic fungal strains Geopyxis aff. majalis and Geopyxis sp. AZ0066: structure-activity relationships of geopyxins and their analogues” (J Nat Prod, 2012).
The source made the active and inactive calls. The calls are words filed in the database; no cut-off is given here.

Columns and labels:
Format in all cases: functional, cell-based
MDA-MB-231 [1] = assay: Cytotoxicity against human MDA-MB-231 cells after 72 hrs by Alamar blue assay; conditions: MDA-MB-231, 72 h
MCF7 [2] = assay: Cytotoxicity against human MCF7 cells after 72 hrs by Alamar blue assay; conditions: MCF7, 72 h
SF-268 [3] = assay: Cytotoxicity against human SF268 cells after 72 hrs by Alamar blue assay; conditions: SF-268, 72 h
[4] = Cytotoxicity against human PC3M cells after 72 hrs by Alamar blue assay; conditions: PC-3M
NCI-H460 [5] = assay: Cytotoxicity against human NCI-H460 cells after 72 hrs by Alamar blue assay; conditions: NCI-H460, 72 h
Fibroblast = assay: Induction of heat shock response in mouse fibroblasts expressing GFP at 2.5 uM after overnight incubation by fluorescence assay
MDA-MB-231 [6] = assay: Cytotoxicity against human MDA-MB-231 cells at 5 uM after 72 hrs by Alamar blue assay
SF-268 [7] = assay: Cytotoxicity against human SF268 cells at 5 uM after 72 hrs by Alamar blue assay
PC-3M = assay: Cytotoxicity against human PC3M cells at 5 uM after 72 hrs by Alamar blue assay
NCI-H460 [8] = assay: Cytotoxicity against human NCI-H460 cells at 5 uM after 72 hrs by Alamar blue assay
MCF7 [9] = assay: Cytotoxicity against human MCF7 cells at 5 uM after 72 hrs by Alamar blue assay

Row | Structure (SMILES) | IC50 (MDA-MB-231 [1]) | IC50 (MCF7 [2]) | IC50 (SF-268 [3]) | IC50 [4] | IC50 (NCI-H460 [5]) | Activity (Fibroblast) | Activity (MDA-MB-231 [6]) | Activity (SF-268 [7]) | Activity (PC-3M) | Activity (NCI-H460 [8]) | Activity (MCF7 [9])
1 | C=C1C(=O)[C@]23C[C@H]1CC[C@H]2[C@]1(C)[C@@H](OC(C)=O)CC[C@@](C)(C(=O)O)[C@H]1C[C@@H]3O | 4110 nM | 3480 nM | 2370 nM | 3880 nM | 3520 nM | inactive |  |  |  |  | 
2 | C[C@]12[C@@H]3CC[C@@H]4C[C@]3(C(=O)[C@@H]4CO)[C@@H](O)C[C@@H]1[C@](C)(C(=O)O)CC[C@@H]2O |  |  |  |  |  |  | inactive | inactive | inactive | inactive | inactive
3 | C=C1C(=O)[C@]23C[C@H]1CC[C@H]2[C@]1(C)[C@@H](OC(C)=O)CC[C@@](C)(C(=O)OC)[C@H]1C[C@@H]3O | 1150 nM | 530 nM | 660 nM | 1540 nM | 820 nM | Active |  |  |  |  | 
4 | C=C1C(=O)[C@]23C[C@H]1CC[C@H]2[C@]1(C)[C@@H](O)[C@@H](O)C[C@@](C)(C(=O)O)[C@H]1C[C@@H]3O |  |  |  |  |  |  | inactive | inactive | inactive | inactive | inactive
5 | C=C1C(=O)[C@]23C[C@H]1CC[C@H]2[C@]1(C)CCC[C@@](C)(C(=O)O)[C@H]1C[C@@H]3O [GEOPYXIN B] | 3310 nM | 4320 nM | 2350 nM | 5410 nM | 2250 nM | Active |  |  |  |  | 
6 | C=C1C(=O)[C@]23C[C@H]1CC[C@H]2[C@]1(C)[C@@H](OC(C)=O)CC[C@@](C)(C(=O)O)[C@H]1C[C@@H]3OC(C)=O |  |  |  |  |  |  | inactive | inactive | inactive | inactive | inactive
7 | C=C1C(=O)[C@]23C[C@H]1CC[C@H]2[C@]1(C)[C@@H](O)[C@@H](O)C[C@@](C)(C(=O)OC)[C@H]1C[C@@H]3O [METHYLGEOPYXIN E] | 3810 nM | 2080 nM | 1020 nM | 3990 nM | 2270 nM | inactive |  |  |  |  | 
8 | C=C1C(=O)[C@]23C[C@H]1C[C@H](O)[C@H]2[C@]1(C)CCC[C@@](C)(C(=O)O)[C@H]1C[C@@H]3O |  |  |  |  |  |  | inactive | inactive | inactive | inactive | inactive
9 | C=C1C(=O)[C@]23C[C@H]1CC[C@H]2[C@]1(C)[C@@H](O)CC[C@@](C)(C(=O)O)[C@H]1C[C@@H]3O |  |  |  |  |  |  | inactive | inactive | inactive | inactive | inactive
10 | C=C1C(=O)[C@]23C[C@H]1CC[C@H]2[C@]1(C)[C@@H](OC(C)=O)CC[C@@](C)(C(=O)OC)[C@H]1C[C@@H]3OC(C)=O | 1930 nM | 1180 nM | 1180 nM | 2310 nM | 1260 nM | inactive |  |  |  |  | 
11 | C=C1C(=O)[C@]23C[C@H]1CC[C@H]2[C@]1(C)C(=O)CC[C@@](C)(C(=O)OC)[C@H]1C[C@@H]3O [METHYLGEOPYXIN C] | 3380 nM | 1670 nM | 1560 nM | 3630 nM | 2280 nM | inactive |  |  |  |  | 
12 | C=C1C(=O)[C@]23C[C@H]1CC[C@H]2[C@]1(C)[C@@H](O)CC[C@@](C)(C(=O)OC)[C@H]1C[C@@H]3O [METHYLGEOPYXIN A] | 730 nM | 790 nM | 720 nM | 2270 nM | 1080 nM | inactive |  |  |  |  | 
13 | C=C1C(=O)[C@]23C[C@H]1CC[C@H]2[C@]1(C)CCC[C@@](C)(C(=O)OC)[C@H]1C[C@@H]3O [METHYLGEOPYXIN B] | 910 nM | 630 nM | 690 nM | 1480 nM | 920 nM | inactive |  |  |  |  | 
14 | C=C1C(=O)[C@]23C[C@H]1CC[C@H]2[C@]1(C)C(=O)CC[C@@](C)(C(=O)O)[C@H]1C[C@@H]3O |  |  |  |  |  |  | inactive | inactive | inactive | inactive | inactive
15 | COc1cccc2c1C(=O)c1c(O)c3c(c(O)c1C2=O)C[C@@](O)(C(=O)CO)C[C@@H]3O[C@H]1C[C@H](N)[C@H](O)[C@H](C)O1 [DOXORUBICIN] | 580 nM | 420 nM | 620 nM | 240 nM | 420 nM |  |  |  |  |  | 
16 | COC(=O)[C@]1(C)CC[C@H](O)[C@@]2(C)[C@@H]3CC[C@@H]4C[C@]3(C(=O)[C@@H]4CO)[C@@H](O)C[C@@H]21 |  |  |  |  |  |  | inactive | inactive | inactive | inactive | inactive
